Paper PMC11876601 (Molecular Systems Biology, 2025)
Like-named read-outs stand apart in the source and are kept apart here.

Tests used:
13 PDAC cell lines = assay: Phenotypic drug combination viability screen (ATPlite, 72 h), cell line panel; type: cell-based, human; conditions: single agent, 72 h
Method: (§1) Cell viability was assessed by measuring ATP levels to indicate metabolic activity.
(§2) Afterward, small amounts were transferred to 384-well intermediate plates (Greiner Bio-One GmbH, Germany). […] For drug combination screening, 1000 to 5000 cells were seeded into 384-well plates (CulturPlate™, Perkin Elmer, MA, USA) using a Multidrop™ Combi Reagent Dispenser (Thermo Scientific, MA, USA) in 50 µl medium per well 24 h prior to drug treatment (seeding densities see Appendix Table S1). […] The final DMSO concentration in each well was 0.2%. […] Eight wells per plate without library drug served as negative controls, and sixteen wells per plate containing 5 µM Staurosporine served as positive controls. Control plates not containing any drug were used to correct for incubation effects, and data quality was assessed by calculation of Z-prime of positive and negative controls according to1 Z-prime=1−3SDpos+3SDneg/[…] where SD is the standard deviation. […] Dose–response curves from the experimental and hypothetical data were compared, and shifts in AUC were used to describe combination effects (AUC∆ = AUChypothetical − AUCexperimental). […] Only combinations with R^2 > 0.8 in both conditions were considered in the synergy analysis.

[1] = tested on: HPDE (immortalized pancreatic duct cell line); assay: Drug combination viability screen (ATPlite, 72 h); type: cell-based, human;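 on AUC: area under vehicle-normalized viability curve scaled 0 to 100 percent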
Method: as §1, §2

HuP-T4 [2] = assay: cells; design: ATPlite luminescence viability of PDAC cell lines, 11-dose single-agent curves, 4-parameter fit; conditions: Homo sapiens, HuP-T4, 72 h, read-out: EC50 [nM]
How it was run: (§3)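 cells (1000 to 5000 per well) seeded 24 h before drug addition in a combination screen at 0.2% final DMSO. Controls were drug-free wells (negative) and 5 µM staurosporine (positive).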

PaTu-8988-T [3] = assay: cells; design: ATPlite luminescence viability of PDAC cell lines, 11-dose single-agent curves, 4-parameter fit; conditions: Homo sapiens, PaTu 8988t, 72 h, read-out: EC50 [nM]
How it was run: as §3

HPDE [4] = assay: cells; design: ATPlite luminescence viability of PDAC cell lines, 11-dose single-agent curves, 4-parameter fit; conditions: HPDE, 72 h, read-out: EC50 [nM]
How it was run: as §3

BxPC-3 [5] = assay: cells; design: ATPlite luminescence viability of PDAC cell lines, 11-dose single-agent curves, 4-parameter fit; conditions: Homo sapiens, BXPC-3, 72 h, read-out: EC50 [nM]
How it was run: as §3

MiaPaCa-2 [6] = assay: cells; design: ATPlite luminescence viability of PDAC cell lines, 11-dose single-agent curves, 4-parameter fit; conditions: Homo sapiens, MIA PaCa-2, 72 h, read-out: EC50 [nM]
How it was run: as §3

FAMPAC [7] = assay: cells; design: ATPlite luminescence viability of PDAC cell lines, 11-dose single-agent curves, 4-parameter fit; conditions: 72 h, read-out: EC50 [nM]
How it was run: as §3

AsPC-1 [8] = assay: cells; design: ATPlite luminescence viability of PDAC cell lines, 11-dose single-agent curves, 4-parameter fit; conditions: Homo sapiens, ASPC1, 72 h, read-out: EC50 [nM]
How it was run: as §3

PSN-1 [9] = assay: cells; design: ATPlite luminescence viability of PDAC cell lines, 11-dose single-agent curves, 4-parameter fit; conditions: Homo sapiens, PSN1, 72 h, read-out: EC50 [nM]
How it was run: as §3

PANC-1 [10] = assay: cells; design: ATPlite luminescence viability of PDAC cell lines, 11-dose single-agent curves, 4-parameter fit; conditions: Homo sapiens, PANC-1, 72 h, read-out: EC50 [nM]
How it was run: as §3

Suit2-07 [11] = assay: cells; design: ATPlite luminescence viability of PDAC cell lines, 11-dose single-agent curves, 4-parameter fit; conditions: 72 h, read-out: EC50 [nM]
How it was run: as §3

Colo-357 [12] = assay: cells; design: ATPlite luminescence viability of PDAC cell lines, 11-dose single-agent curves, 4-parameter fit; conditions: Homo sapiens, COLO357, 72 h, read-out: EC50 [nM]
How it was run: as §3

Dan-G [13] = assay: cells; design: ATPlite luminescence viability of PDAC cell lines, 11-dose single-agent curves, 4-parameter fit; conditions: 72 h, read-out: EC50 [nM]
How it was run: as §3

Capan-1 [14] = assay: cells; design: ATPlite luminescence viability of PDAC cell lines, 11-dose single-agent curves, 4-parameter fit; conditions: Homo sapiens, CAPAN-1, 72 h, read-out: EC50 [nM]
How it was run: as §3

Dan-G cells = assay: Drug combination viability screen (ATPlite, 72 h); type: cell-based, human; conditions: Bliss model
Method: as §1, §2

Capan-1 cells = assay: Drug combination viability screen (ATPlite, 72 h); type: cell-based, human; conditions: Bliss model
Method: as §1, §2

HuP-T4 [15] = assay: cells; design: Viability of PDAC cell lines, ATPlite luminescence, 11-dose single-agent curve fit; conditions: Homo sapiens, HuP-T4, 72 h, read-out: EC50 [nM]
How it was run: (§4)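 cells (1000 to 5000 per well) seeded 24 h before drug addition in a screen at 0.2% final DMSO. Controls were drug-free wells (negative) and 5 µM staurosporine (positive).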

PaTu-8988-T [16] = assay: cells; design: Viability of PDAC cell lines, ATPlite luminescence, 11-dose single-agent curve fit; conditions: Homo sapiens, PaTu 8988t, 72 h, read-out: EC50 [nM]
How it was run: as §4

HPDE [17] = assay: cells; design: Viability of PDAC cell lines, ATPlite luminescence, 11-dose single-agent curve fit; conditions: HPDE, 72 h, read-out: EC50 [nM]
How it was run: as §4

BxPC-3 [18] = assay: cells; design: Viability of PDAC cell lines, ATPlite luminescence, 11-dose single-agent curve fit; conditions: Homo sapiens, BXPC-3, 72 h, read-out: EC50 [nM]
How it was run: as §4

MiaPaCa-2 [19] = assay: cells; design: Viability of PDAC cell lines, ATPlite luminescence, 11-dose single-agent curve fit; conditions: Homo sapiens, MIA PaCa-2, 72 h, read-out: EC50 [nM]
How it was run: as §4

FAMPAC [20] = assay: cells; design: Viability of PDAC cell lines, ATPlite luminescence, 11-dose single-agent curve fit; conditions: 72 h, read-out: EC50 [nM]
How it was run: as §4

AsPC-1 [21] = assay: cells; design: Viability of PDAC cell lines, ATPlite luminescence, 11-dose single-agent curve fit; conditions: Homo sapiens, ASPC1, 72 h, read-out: EC50 [nM]
How it was run: as §4

PSN-1 [22] = assay: cells; design: Viability of PDAC cell lines, ATPlite luminescence, 11-dose single-agent curve fit; conditions: Homo sapiens, PSN1, 72 h, read-out: EC50 [nM]
How it was run: as §4

PANC-1 [23] = assay: cells; design: Viability of PDAC cell lines, ATPlite luminescence, 11-dose single-agent curve fit; conditions: Homo sapiens, PANC-1, 72 h, read-out: EC50 [nM]
How it was run: as §4

Suit2-07 [24] = assay: cells; design: Viability of PDAC cell lines, ATPlite luminescence, 11-dose single-agent curve fit; conditions: 72 h, read-out: EC50 [nM]
How it was run: as §4

Colo-357 [25] = assay: cells; design: Viability of PDAC cell lines, ATPlite luminescence, 11-dose single-agent curve fit; conditions: Homo sapiens, COLO357, 72 h, read-out: EC50 [nM]
How it was run: as §4

Dan-G [26] = assay: cells; design: Viability of PDAC cell lines, ATPlite luminescence, 11-dose single-agent curve fit; conditions: 72 h, read-out: EC50 [nM]
How it was run: as §4

Capan-1 [27] = assay: cells; design: Viability of PDAC cell lines, ATPlite luminescence, 11-dose single-agent curve fit; conditions: Homo sapiens, CAPAN-1, 72 h, read-out: EC50 [nM]
How it was run: as §4

Colo-357 cells = assay: Drug combination viability screen (ATPlite, 72 h); type: cell-based, human; conditions: Bliss model
Method: as §1, §2

Row | SMILES | median AUC across all cell lines (13 PDAC cell lines) [%] | EC50 (HuP-T4 [2]) [nM] | EC50 (PaTu-8988-T [3]) [nM] | EC50 (HPDE [4]) [nM] | EC50 (BxPC-3 [5]) [nM] | EC50 (MiaPaCa-2 [6]) [nM] | EC50 (FAMPAC [7]) [nM] | EC50 (AsPC-1 [8]) [nM] | EC50 (PSN-1 [9]) [nM] | EC50 (PANC-1 [10]) [nM] | EC50 (Suit2-07 [11]) [nM] | EC50 (Colo-357 [12]) [nM] | EC50 (Dan-G [13]) [nM] | EC50 (Capan-1 [14]) [nM] | EC50 (HuP-T4 [15]) [nM] | also measured
1 | CC(C)n1nc(-c2ccc3oc(N)nc3c2)c2c(N)ncnc21 [Sapanisertib] | 54 | 1510 | 3.95 | 11.7 | 11.2 | 10.1 | 2.05 | 1.5 | 23.2 | 70.5 | 14.2 | 10.8 | 8.08 | 135 | – | AUC ([1]; single agent, HPDE): < 60%
2 | O=C(c1ccc(F)c(F)c1Nc1ccc(I)cc1F)N1CC(O)([C@@H]2CCCCN2)C1 [Cobimetinib] | < 70 | > 10000 | 5570 | 4490 | 101 | 6.21 | 39.5 | 13.7 | 12.3 | > 10000 | 752 | 5300 | > 10000 | 8510 | – | –
3 | CO[C@H]1C[C@@H]2CC[C@@H](C)[C@@](O)(O2)C(=O)C(=O)N2CCCC[C@H]2C(=O)O[C@H]([C@H](C)C[C@@H]2CC[C@@H](OP(C)(C)=O)[C@H](OC)C2)CC(=O)[C@H](C)/C=C(\C)[C@@H](O)[C@@H](OC)C(=O)[C@H](C)C[C@H](C)/C=C/C=C/C=C/1C [Ridaforolimus] | > 80 | – | – | – | – | – | – | – | – | – | – | – | – | – | 15.9 | synergy with GEM (Dan-G cells): synergized; synergy with GEM (Capan-1 cells): synergized; sensitization of HPDE cells to GEM ([1]; combination with GEM): strongly sensitized; EC50 (PaTu-8988-T [16]): 0.04 nM; EC50 (HPDE [17]): 0.56 nM; EC50 (BxPC-3 [18]): 0.13 nM; EC50 (MiaPaCa-2 [19]): 3.25 nM; EC50 (FAMPAC [20]): 0.13 nM; EC50 (AsPC-1 [21]): 0.22 nM; EC50 (PSN-1 [22]): 0.26 nM; EC50 (PANC-1 [23]): 4.17 nM; EC50 (Suit2-07 [24]): 118 nM; EC50 (Colo-357 [25]): 127 nM; EC50 (Dan-G [26]): 87.2 nM; EC50 (Capan-1 [27]): 31.4 nM; synergy with GEM (Colo-357 cells): synergized
4 | O=C(Cc1ccc(-c2ccc(OCCN3CCOCC3)cc2)cn1)NCc1ccccc1 [Tirbanibulin] | 60 | – | 33 | 39.9 | 29.9 | 26.3 | 33.1 | 41.9 | 30.7 | 28.6 | 45 | 37.7 | 31.9 | 43.4 | 10300 | –
